Reference: the NIST ThermoML archive (doi:10.1016/j.tca.2005.08.012)

Assays:
[1] = xn = mol fraction of the nth substance listed; settings: 101 kPa, Liquid, Vibrating tube method
[2] = 101.33 kPa, Liquid, Vibrating tube method

CCCN [propan-1-amine] + c1ccccc1
mass density [kg/m3], [1]
Settings | x1 = 0.0079 | x1 = 0.0186 | x1 = 0.028 | x1 = 0.0366 | x1 = 0.047 | x1 = 0.0579 | x1 = 0.0659 | x1 = 0.0759 | x1 = 0.0844
303.15 K | 867.07 | 865.41 | 863.91 | 862.58 | 860.86 | 859.18 | 857.86 | 856.37 | 854.97
313.15 K | 856.39 | 854.75 | 853.34 | 852.02 | 850.44 | 848.78 | 847.56 | 846.03 | 844.73

CCCCN(CCCC)CCCC [tributylamine]
[2]
Settings | mass density [kg/m3]
303.15 K | 770.21
313.15 K | 763.11

CCCCN(CCCC)CCCC [tributylamine] + C1CCCCC1
mass density [kg/m3], [1]
Settings | x1 = 0.0103 | x1 = 0.0216 | x1 = 0.0318 | x1 = 0.0402 | x1 = 0.0516 | x1 = 0.0598 | x1 = 0.0709 | x1 = 0.0807 | x1 = 0.0861
303.15 K | 768.92 | 768.75 | 768.65 | 768.57 | 768.46 | 768.38 | 768.26 | 768.18 | 768.14
313.15 K | 759.38 | 759.25 | 759.17 | 759.09 | 758.99 | 758.97 | 758.92 | 758.91 | 758.99

CCCCN(CCCC)CCCC [tributylamine] + c1ccccc1
mass density [kg/m3], [1]
Settings | x1 = 0.0102 | x1 = 0.0206 | x1 = 0.0302 | x1 = 0.0404 | x1 = 0.0499 | x1 = 0.0596 | x1 = 0.0698 | x1 = 0.0796 | x1 = 0.0874
303.15 K | 865.38 | 862.54 | 860.05 | 857.48 | 855.12 | 852.77 | 850.4 | 848.22 | 846.53
313.15 K | 854.76 | 852.03 | 849.61 | 847.12 | 844.87 | 842.65 | 840.38 | 838.28 | 836.65

CCN(CC)CC [triethylamine]
[2]
Settings | mass density [kg/m3]
303.15 K | 718.44
313.15 K | 709.05

CCN(CC)CC [triethylamine] + C1CCCCC1
mass density [kg/m3], [1]
Settings | x1 = 0.0102 | x1 = 0.0192 | x1 = 0.0299 | x1 = 0.0422 | x1 = 0.0498 | x1 = 0.0618 | x1 = 0.0712 | x1 = 0.0799 | x1 = 0.0895 | x1 = 0.0995
303.15 K | 768.28 | 767.5 | 766.58 | 765.57 | 764.97 | 764.04 | 763.35 | 762.72 | 762.05 | 761.36
313.15 K | 758.66 | 757.93 | 757.05 | 756.07 | 755.48 | 754.54 | 753.86 | 753.22 | 752.62 | 751.88

CCN(CC)CC [triethylamine] + c1ccccc1
mass density [kg/m3], [1]
Settings | x1 = 0.0102 | x1 = 0.0209 | x1 = 0.0311 | x1 = 0.0395 | x1 = 0.0501 | x1 = 0.0618 | x1 = 0.0712 | x1 = 0.0804 | x1 = 0.0919 | x1 = 0.1
303.15 K | 865.85 | 863.38 | 861.03 | 859.07 | 856.75 | 854.1 | 851.95 | 850 | 847.45 | 845.76
313.15 K | 855.14 | 852.62 | 850.24 | 848.31 | 845.93 | 843.31 | 841.23 | 839.27 | 836.79 | 835.08

CCCN(CCC)CCC [tripropylamine]
[2]
Settings | mass density [kg/m3]
303.15 K | 749.15
313.15 K | 740.41

CCCN(CCC)CCC [tripropylamine] + C1CCCCC1
mass density [kg/m3], [1]
Settings | x1 = 0.0109 | x1 = 0.02 | x1 = 0.0305 | x1 = 0.0406 | x1 = 0.0511 | x1 = 0.0596 | x1 = 0.0693 | x1 = 0.0787 | x1 = 0.0878
303.15 K | 768.54 | 768.11 | 767.6 | 767.14 | 766.65 | 766.35 | 765.93 | 765.54 | 765.16
313.15 K | 758.99 | 758.57 | 758.14 | 757.71 | 757.28 | 756.93 | 756.56 | 756.18 | 755.84

CCCN(CCC)CCC [tripropylamine] + c1ccccc1
mass density [kg/m3], [1]
Settings | x1 = 0.0104 | x1 = 0.0206 | x1 = 0.0307 | x1 = 0.0402 | x1 = 0.0497 | x1 = 0.0596 | x1 = 0.0693 | x1 = 0.0788 | x1 = 0.0889
303.15 K | 865.5 | 862.82 | 860.21 | 857.87 | 855.54 | 853.15 | 850.88 | 848.69 | 846.42
313.15 K | 854.85 | 852.24 | 849.71 | 847.43 | 845.18 | 842.85 | 840.66 | 838.55 | 836.35
